Test results reported in ChEMBL document CHEMBL3352047, “Hybrids of phenylsulfonylfuroxan and coumarin as potent antitumor agents” (J Med Chem, 2014).

Key:
A2780 = assay: Antiproliferative activity against human A2780 cells after 48 hrs by MTT assay; conditions: A2780, 48 h
HeLa = assay: cells; conditions: Homo sapiens, 48 h
[1] = Antiproliferative activity against human A2780/CDDP cells after 48 hrs by MTT assay
A549 = assay: cells; conditions: Homo sapiens, A549, 48 h
HUVEC = assay: cells; conditions: Homo sapiens, 48 h
Description: Antiproliferative activity against HUVEC after 48 hrs by MTT assay

MDA-MB-231 [2] = assay: Antiproliferative activity against human MDA-MB-231 cells after 48 hrs by MTT assay; conditions: MDA-MB-231, 48 h
MDA-MB-231 [3] = assay: Antiproliferative activity against gemcitabine-resistant human MDA-MB-231 cells after 48 hrs by MTT assay; conditions: MDA-MB-231, 48 h
[4] = Antiproliferative activity against human T29 cells after 48 hrs by MTT assay; conditions: T29, 48 h

| SMILES | IC50 (A2780) | IC50 (HeLa) | IC50 [1] | IC50 (A549) | IC50 (HUVEC) | IC50 (MDA-MB-231 [2]) | IC50 (MDA-MB-231 [3]) | IC50 [4] |
| --- | --- | --- | --- | --- | --- | --- | --- | --- |
| CCc1cc(=O)c2ccc(Oc3no[n+]([O-])c3S(=O)(=O)c3ccccc3)cc2o1 | 0.13 µM | > 20 µM | 2.99 µM | 3.29 µM | 3.35 µM | – | – | – |
| CCc1cc(=O)c2ccc(OCCOc3no[n+]([O-])c3S(=O)(=O)c3ccccc3)cc2o1 | 3.33 µM | 0.83 µM | 2.88 µM | 5.45 µM | 1.03 µM | – | – | – |
| Cc1cc(=O)oc2c(C)c(OCCOc3no[n+]([O-])c3S(=O)(=O)c3ccccc3)ccc12 | 0.046 µM | 0.25 µM | 0.33 µM | 1 µM | 0.097 µM | – | – | – |
| Cc1cc(=O)oc2cc(Oc3no[n+]([O-])c3S(=O)(=O)c3ccccc3)ccc12 | 2.99 µM | > 20 µM | 3.15 µM | 5.55 µM | 5.43 µM | – | – | – |
| Cc1cc(=O)oc2cc(NCCOc3no[n+]([O-])c3S(=O)(=O)c3ccccc3)ccc12 | 2.45 µM | 1.99 µM | 5.45 µM | 1.44 µM | 3.04 µM | – | – | – |
| Cc1cc(=O)oc2c(C)c(Oc3no[n+]([O-])c3S(=O)(=O)c3ccccc3)ccc12 | 9.35 µM | > 20 µM | > 20 µM | 11.7 µM | > 20 µM | – | – | – |
| Cc1cc(=O)oc2cc(OCCCOc3no[n+]([O-])c3S(=O)(=O)c3ccccc3)ccc12 | 0.35 µM | 0.26 µM | 0.36 µM | 0.28 µM | 0.68 µM | – | – | – |
| O=c1ccc2ccc(OCCOc3no[n+]([O-])c3S(=O)(=O)c3ccccc3)cc2o1 | 0.17 µM | 0.11 µM | 0.2 µM | 0.26 µM | 0.37 µM | – | – | – |
| Nc1ccn([C@@H]2O[C@H](CO)[C@@H](O)C2(F)F)c(=O)n1 [GEMCITABINE] | – | – | – | – | – | 0.025 µM | > 10 µM | – |
| COCCOc1no[n+]([O-])c1S(=O)(=O)c1ccccc1 | > 2 µM | – | – | – | – | – | – | > 2 µM |
| Cc1cc(=O)oc2cc(O)ccc12 [HYMECROMONE] | > 2 µM | – | – | – | – | – | – | > 2 µM |
